According to US20220220128A1, “HETEROCYCLIC COMPOUNDS AS KINASE INHIBITORS, COMPOSITIONS COMPRISING THE HETEROCYCLIC COMPOUND, AND METHODS OF USE THEREOF” (JS Innopharm (Shanghai) Ltd, priority 2019, published 2022):

Assays:
human RET kinase = biological target: T1, human RET kinase (Homo sapiens, UniProt P07949); experiment: RET Kinase Assay (LanthaScreen TR-FRET enzymatic assay); format: biochemical; conditions: 7 nM RET, 23 μM ATP
T1 construct: purchased Carna 08-159
Outline: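 Human RET (7 nM) preincubated 15 min with compound in 50 mM HEPES pH 7.5, 0.0015% Brij-35, then reacted with 3 μM FAM-P2 peptide and 23 μM ATP for 1 h at 28° C.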

BAF3-KIF5B-RET cells = biological target: T2, BAF3-KIF5B-RET cells (Homo sapiens, UniProt P07949); experiment: BAF3-KIF5B-RET Cell proliferation assay (CellTiter-Glo, 72 hours); format: cell-based; conditions: growth inhibition, read-out: BA/F3-KIF5B-RET Cellular activity
T2 construct: fused on or other part: P33176 (Kinesin-1 heavy chain)
Description: Compounds disclosed herein were tested for the inhibition of RET by a cancer cell proliferation assay commonly known as CellTiter-Glo assay. In this assay, a complete media was prepared by adding 10% fetal bovine serum to RPMI-1640 medium (Life technology) for BAF3-FIF5B-RET cells. BAF3-KIF5B-RET cells were added to each of 88 wells of a 96 well plate at a seeding density of 2,000 cells/well/95 μL. The cells were allowed to attach to the plate by incubating at 37° C. for 24 hours. The compound was dissolved in DMSO (SIGMA). A solution of test compound was prepared in complete media by serial dilution to obtain the following concentrations: 20 μM, 6.67 μM, 2.22 μM, 0.74 μM, 0.25 μM, 0.082 μM, 0.027 μM, 0.0091 μM and 0.0030 μM. The test compound solution (5 μL) was added to each of 80 cell-containing wells. The final concentrations of the compound were following: 1 μM, 0.33 μM, 0.11 μM, 0.037 μM, 0.012 μM, 0.0041 μM, 0.0014 μM, 0.00046 μM and 0.00015 μM. The final concentration of DMSO is 0.1%. To the 8 remaining cell-containing wells, only complete media (containing 0.1% DMSO) was added to form a control group in order to measure maximal proliferation. To the remaining 8 empty wells, complete media was added to for a vehicle control group in order to measure background. The plates were incubated at 37° C. for 72 hours. 50 μl of CellTiter-Glo® Reagent was added to each well. Mix contents for 2 minutes on an orbital shaker to induce cell lysis. Incubate at room temperature for 10 minutes to stabilize luminescent signal. Record luminescence on Paradigm. Cell viability (CV %) was calculated relative to vehicle (DMSO) treated control wells. The IC50 was calculated using GraphPad Prism.

human KDR kinase = biological target: T3, human KDR kinase (Homo sapiens, UniProt P35968); experiment: KDR Kinase Assay (LanthaScreen TR-FRET enzymatic assay); format: biochemical; conditions: 1.2 nM KDR, 92 μM ATP
T3 construct: purchased Carna 08-191
Outline: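 Recombinant human KDR (1.2 nM) preincubated 15 min at room temperature with compound, then reacted with 3 μM FAM-P22 peptide and 92 μM ATP in 50 mM HEPES pH 7.5 for 1 h at 28° C. EDTA stop, then TR-FRET acceptor/donor ratio read; percent of 1% DMSO control fitted sigmoidally for IC50.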

TT cells = experiment: TT Cell Proliferation Assay (WST-8, 8 days); format: cell-based; conditions: Homo sapiens, TT, 192 h, growth inhibition in TT cells, read-out: TT Cellular Activity
Outline: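 TT cells, 6,000/well in RPMI-1640 with 10% FBS, attached 24 h, then exposed to compound at 5 μM down to 0.0005 μM final (0.5% DMSO) for 8 days at 37 °C. WST-8 added for 5 h, absorbance at 450 nm. IC50 calculated from the dilution series.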

T3 sequence (P35968 20-1356): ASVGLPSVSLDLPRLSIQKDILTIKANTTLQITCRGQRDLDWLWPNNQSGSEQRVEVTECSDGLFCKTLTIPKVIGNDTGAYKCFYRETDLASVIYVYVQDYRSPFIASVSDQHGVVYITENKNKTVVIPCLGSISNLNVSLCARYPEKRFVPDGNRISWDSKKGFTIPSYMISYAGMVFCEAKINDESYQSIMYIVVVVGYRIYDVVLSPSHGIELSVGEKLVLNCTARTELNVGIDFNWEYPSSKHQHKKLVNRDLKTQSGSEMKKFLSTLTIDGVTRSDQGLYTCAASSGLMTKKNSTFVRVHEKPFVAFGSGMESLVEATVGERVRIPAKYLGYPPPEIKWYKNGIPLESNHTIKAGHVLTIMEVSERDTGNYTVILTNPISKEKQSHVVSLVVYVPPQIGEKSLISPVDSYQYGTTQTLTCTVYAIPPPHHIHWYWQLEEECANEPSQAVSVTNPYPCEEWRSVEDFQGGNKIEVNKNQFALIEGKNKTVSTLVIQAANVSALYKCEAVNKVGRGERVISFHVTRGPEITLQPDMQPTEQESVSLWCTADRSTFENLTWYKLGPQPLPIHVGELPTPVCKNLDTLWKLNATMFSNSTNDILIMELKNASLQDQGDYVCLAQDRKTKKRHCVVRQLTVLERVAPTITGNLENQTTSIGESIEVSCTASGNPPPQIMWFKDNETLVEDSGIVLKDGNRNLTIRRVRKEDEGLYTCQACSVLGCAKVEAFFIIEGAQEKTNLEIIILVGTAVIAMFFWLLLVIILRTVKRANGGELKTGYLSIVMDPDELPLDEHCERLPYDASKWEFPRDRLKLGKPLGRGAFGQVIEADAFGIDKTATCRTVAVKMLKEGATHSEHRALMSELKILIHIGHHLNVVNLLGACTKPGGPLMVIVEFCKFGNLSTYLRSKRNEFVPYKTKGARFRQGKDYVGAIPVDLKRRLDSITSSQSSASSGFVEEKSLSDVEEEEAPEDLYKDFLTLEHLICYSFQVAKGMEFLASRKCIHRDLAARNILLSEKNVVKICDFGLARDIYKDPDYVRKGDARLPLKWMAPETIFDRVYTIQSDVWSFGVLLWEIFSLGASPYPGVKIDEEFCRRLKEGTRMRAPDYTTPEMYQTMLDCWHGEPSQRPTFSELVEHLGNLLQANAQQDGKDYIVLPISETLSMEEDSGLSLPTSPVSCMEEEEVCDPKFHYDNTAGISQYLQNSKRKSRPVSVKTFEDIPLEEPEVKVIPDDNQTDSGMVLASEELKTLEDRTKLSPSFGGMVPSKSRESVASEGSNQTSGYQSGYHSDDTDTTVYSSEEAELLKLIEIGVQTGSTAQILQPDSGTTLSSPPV
T1 sequence (P07949 29-1114): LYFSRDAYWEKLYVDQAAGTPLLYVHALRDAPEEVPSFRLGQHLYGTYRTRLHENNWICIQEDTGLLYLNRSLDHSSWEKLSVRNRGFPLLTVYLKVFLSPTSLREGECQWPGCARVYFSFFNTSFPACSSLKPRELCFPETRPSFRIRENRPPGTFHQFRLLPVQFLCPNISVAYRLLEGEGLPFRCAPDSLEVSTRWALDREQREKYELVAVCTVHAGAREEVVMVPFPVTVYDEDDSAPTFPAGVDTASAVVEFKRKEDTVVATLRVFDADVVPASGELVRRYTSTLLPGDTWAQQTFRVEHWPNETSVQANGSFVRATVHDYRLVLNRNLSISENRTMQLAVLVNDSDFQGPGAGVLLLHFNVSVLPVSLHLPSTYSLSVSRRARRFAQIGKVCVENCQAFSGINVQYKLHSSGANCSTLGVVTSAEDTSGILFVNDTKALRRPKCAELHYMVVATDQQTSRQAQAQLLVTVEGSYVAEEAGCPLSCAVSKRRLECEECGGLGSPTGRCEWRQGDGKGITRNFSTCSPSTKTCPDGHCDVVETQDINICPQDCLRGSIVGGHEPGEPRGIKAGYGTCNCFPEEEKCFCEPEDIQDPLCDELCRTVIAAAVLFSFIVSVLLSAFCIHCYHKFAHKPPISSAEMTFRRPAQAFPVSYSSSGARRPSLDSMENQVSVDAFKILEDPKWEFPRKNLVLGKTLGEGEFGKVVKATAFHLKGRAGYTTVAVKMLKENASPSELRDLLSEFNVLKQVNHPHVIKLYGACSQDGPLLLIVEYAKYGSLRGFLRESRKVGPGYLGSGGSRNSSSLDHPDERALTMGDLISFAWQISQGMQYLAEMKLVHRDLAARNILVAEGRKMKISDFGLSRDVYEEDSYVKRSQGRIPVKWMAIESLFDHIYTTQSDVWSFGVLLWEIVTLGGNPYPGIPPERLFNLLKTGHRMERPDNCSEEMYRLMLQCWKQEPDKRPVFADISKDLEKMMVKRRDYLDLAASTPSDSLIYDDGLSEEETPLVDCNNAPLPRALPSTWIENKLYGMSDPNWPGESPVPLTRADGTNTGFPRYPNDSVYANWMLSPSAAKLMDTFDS
T2 sequence (P07949 whole entry, change not shown, the tested form may be a part): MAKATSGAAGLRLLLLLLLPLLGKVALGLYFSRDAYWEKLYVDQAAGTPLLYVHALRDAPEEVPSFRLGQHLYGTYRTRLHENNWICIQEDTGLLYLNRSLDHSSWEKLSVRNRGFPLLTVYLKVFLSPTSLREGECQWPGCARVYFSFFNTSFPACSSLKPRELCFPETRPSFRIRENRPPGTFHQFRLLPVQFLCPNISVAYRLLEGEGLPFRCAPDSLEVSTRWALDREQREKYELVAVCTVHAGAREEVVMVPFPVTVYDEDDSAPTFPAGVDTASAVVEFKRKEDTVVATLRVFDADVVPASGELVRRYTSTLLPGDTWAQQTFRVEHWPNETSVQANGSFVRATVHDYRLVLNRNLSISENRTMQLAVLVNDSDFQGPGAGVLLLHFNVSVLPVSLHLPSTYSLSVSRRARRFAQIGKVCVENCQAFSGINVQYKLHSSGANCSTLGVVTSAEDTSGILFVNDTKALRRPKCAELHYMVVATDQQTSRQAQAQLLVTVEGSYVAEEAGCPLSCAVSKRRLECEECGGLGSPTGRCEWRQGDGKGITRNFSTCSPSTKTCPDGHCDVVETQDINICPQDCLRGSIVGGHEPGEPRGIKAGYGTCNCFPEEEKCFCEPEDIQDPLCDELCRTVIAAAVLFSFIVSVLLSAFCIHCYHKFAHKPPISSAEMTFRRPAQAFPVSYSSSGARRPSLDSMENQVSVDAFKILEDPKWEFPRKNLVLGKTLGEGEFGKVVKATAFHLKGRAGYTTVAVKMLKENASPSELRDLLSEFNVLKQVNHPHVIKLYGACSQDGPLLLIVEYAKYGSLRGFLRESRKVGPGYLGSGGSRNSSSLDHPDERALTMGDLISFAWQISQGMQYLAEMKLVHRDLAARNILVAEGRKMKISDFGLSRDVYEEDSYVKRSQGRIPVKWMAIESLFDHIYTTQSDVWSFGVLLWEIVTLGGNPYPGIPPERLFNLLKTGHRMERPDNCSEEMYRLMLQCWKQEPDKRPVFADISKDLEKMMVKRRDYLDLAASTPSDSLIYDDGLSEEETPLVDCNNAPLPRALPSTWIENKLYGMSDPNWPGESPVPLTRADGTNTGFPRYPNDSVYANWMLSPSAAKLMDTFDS

Structure (SMILES)	IC50 (human RET kinase) [nM]	GI50 (BAF3-KIF5B-RET cells) [nM]	IC50 (human KDR kinase) [nM]	IC50 (TT cells) [nM]
CC(C)C(O)C(=O)N[C@H]1[C@@H]2CN(c3ccc(-c4cc(-c5cnn(C)c5)cn5ncc(C#N)c45)cc3)C[C@@H]21 (stereo partly drawn) [Example 16, N-((1R,5S,6s)-3-(4-(3-cyano-6-(1-methyl-1H-pyrazol-4-yl)pyrazolo[1,5-a]pyridin-4-yl)phenyl)-3-azabicyclo[3.1.0]hexan-6-yl)-2-hydroxy-3-methylbutanamide]	≤ 10		10 to 50	10 to 50
Cc1ccc(F)cc1C(=O)N[C@H]1[C@@H]2CN(c3ccc(-c4cc(-c5cnn(C)c5)cn5ncc(C#N)c45)cn3)C[C@@H]21 [Example 26, N-((1R,5S,6s)-3-(5-(3-cyano-6-(1-methyl-1H-pyrazol-4-yl)pyrazolo[1,5-a]pyridin-4-yl)pyridin-2-yl)-3-azabicyclo[3.1.0]hexan-6-yl)-5-fluoro-2-methylbenzamide]	≤ 10		≤ 10	10 to 50
CCOc1cc(-c2ccc(N3C[C@@H]4C[C@@](C)(NC(=O)CC(C)C)C[C@@H]4C3)nc2)c2c(C#N)cnn2c1 [Example 62, N-((3aR,5s,6aS)-2-(5-(3-cyano-6-ethoxypyrazolo[1,5-a]pyridin-4-yl)pyridin-2-yl)-5-methyloctahydrocyclopenta[c]pyrrol-5-yl)-3-methylbutanamide]	≤ 10		50 to 100	10 to 50
COc1ccc(C(=O)N[C@]2(C)C[C@H]3CN(c4ccc(-c5cc(-c6cnn(C)c6)cn6ncc(C#N)c56)cn4)C[C@H]3C2)cn1 [Example 58, N-((3aR,5s,6aS)-2-(5-(3-cyano-6-(1-methyl-1H-pyrazol-4-yl)pyrazolo[1,5-a]pyridin-4-yl)pyridin-2-yl)-5-methyloctahydro-cyclopenta[c]pyrrol-5-yl)-6-methoxy-nicotinamide]	≤ 10		≤ 10	10 to 50
Cc1ccc(Cl)c(C(=O)N[C@H]2[C@@H]3CN(c4ccc(-c5cc(-c6cnn(C)c6)cn6ncc(C#N)c56)cn4)C[C@@H]32)n1 [Example 27, 3-chloro-N-((1R,5S,6s)-3-(5-(3-cyano-6-(1-methyl-1H-pyrazol-4-yl)pyrazolo[1,5-a]pyridin-4-yl)pyridin-2-yl)-3-azabicyclo[3.1.0]hexan-6-yl)-6-methylpicolinamide]	≤ 10		10 to 50	10 to 50
CC(C)C(=O)N1C[C@@H]2CN(c3ccc(-c4cc(-c5cnn(C)c5)cn5ncc(C#N)c45)cn3)C[C@@H]2C1 [Example 10, 4-(6-((3aR,6aS)-5-isobutyrylhexahydropyrrolo[3,4-c]pyrrol-2(1H)-yl)pyridin-3-yl)-6-(1-methyl-1H-pyrazol-4-yl)pyrazolo[1,5-a]pyridine-3-carbonitrile]	≤ 10		10 to 50	10 to 50
Cn1cc(-c2cc(-c3ccc(N4C[C@H]5CN(C(=O)C(O)c6ccccc6)C[C@H]5C4)nc3)c3c(C#N)cnn3c2)cn1 (stereo partly drawn) [Example 3, 4-(6-((3aR,6aS)-5-(2-hydroxy-2-phenylacetyl)hexahydropyrrolo[3,4-c]pyrrol-2(1H)-yl)pyridin-3-yl)-6-(1-methyl-1H-pyrazol-4-yl)pyrazolo[1,5-a]pyridine-3-carbonitrile]	≤ 10		10 to 50	10 to 50
COc1ccc(CN(C)[C@H]2[C@@H]3CN(c4ccc(-c5cc(-c6cnn(C)c6)cn6ncc(C#N)c56)cn4)C[C@@H]32)cn1 [Example 34, 4-(6-((1R,5S,6s)-6-(((6-methoxypyridin-3-yl)methyl)(methyl)amino)-3-azabicyclo[3.1.0]hexan-3-yl)pyridin-3-yl)-6-(1-methyl-1H-pyrazol-4-yl)pyrazolo[1,5-a]pyridine-3-carbonitrile]	≤ 10		10 to 50	10 to 50
CC(C)(O)COc1cc(-c2ccc(N3C[C@@H]4[C@H](C3)[C@H]4NS(=O)(=O)c3c(F)cccc3Cl)nc2)c2c(C#N)cnn2c1 [Example 47, 2-chloro-N-((1R,5S,6s)-3-(5-(3-cyano-6-(2-hydroxy-2-methylpropoxy)pyrazolo[1,5-a]pyridin-4-yl)pyridin-2-yl)-3-azabicyclo[3.1.0]hexan-6-yl)-6-fluorobenzene-sulfonamide]	≤ 10		10 to 50	10 to 50
CC(C)(O)COc1cc(-c2ccc(N3C[C@@H]4[C@H](C3)[C@@H]4NC(=O)c3ncccc3Cl)nc2)c2c(C#N)cnn2c1 [Example 44, 3-chloro-N-((1R,5S,6r)-3-(5-(3-cyano-6-(2-hydroxy-2-methylpropoxy)pyrazolo[1,5-a]pyridin-4-yl)pyridin-2-yl)-3-azabicyclo[3.1.0]hexan-6-yl)picolinamide]	50 to 100		> 100	> 100
CCOc1cc(-c2cnc(N3C[C@@H]4C[C@@](C)(NC(=O)c5ncccc5Cl)C[C@@H]4C3)cn2)c2c(C#N)cnn2c1 [Example 60, 3-chloro-N-((3aR,5s,6aS)-2-(5-(3-cyano-6-ethoxypyrazolo[1,5-a]pyridin-4-yl)pyrazin-2-yl)-5-methyloctahydrocyclopenta[c]pyrrol-5-yl)picolinamide]	≤ 10		> 100	10 to 50

Continued, in another order:

IC50 (human RET kinase) [nM]	GI50 (BAF3-KIF5B-RET cells) [nM]	IC50 (human KDR kinase) [nM]	Structure (SMILES)	IC50 (TT cells) [nM]
≤ 10	≤ 10		CC(=O)NC12CC3CC(C1)N(c1cnc(-c4cc(-c5cnn(C)c5)cn5ncc(C#N)c45)cn1)C(C3)C2 [Example 111, N-((1R,3S,5s,7s)-2-(5-(3-cyano-6-(1-methyl-1H-pyrazol-4-yl)pyrazolo[1,5-a]pyridin-4-yl)pyrazin-2-yl)-2-azaadamantan-5-yl)acetamide]	
10 to 50	50 to 100		CC(C)(O)COc1cc(-c2ccc(N3C[C@@H]4[C@H](C3)[C@H]4C(C)(C)NC(=O)c3ncccc3Cl)nc2)c2c(C#N)cnn2c1 [Example 129, 3-chloro-N-(2-((1R,5S,6r)-3-(5-(3-cyano-6-(2-hydroxy-2-methylpropoxy)pyrazolo[1,5-a]pyridin-4-yl)pyridin-2-yl)-3-azabicyclo[3.1.0]hexan-6-yl)propan-2-yl)picolinamide]	
≤ 10		50 to 100	CC(C)(O)COc1cc(-c2ccc(N3C4CC5CC3CC(NS(C)(=O)=O)(C5)C4)nc2)c2c(C#N)cnn2c1 [Example 131, N-((1R,3S,5s,7s)-2-(5-(3-cyano-6-(2-hydroxy-2-methylpropoxy)pyrazolo[1,5-a]pyidin-4-yl)pyridin-2-yl)-2-azaadamantan-5-yl)methanesulfonamide]	10 to 50
≤ 10		10 to 50	CCOc1cc(-c2ccc(N3C[C@@H]4C[C@@](C)(NC(=O)c5ncc(F)cc5Cl)C[C@@H]4C3)nc2)c2c(C#N)cnn2c1 [Example 64, 3-chloro-N-((3aR,5s,6aS)-2-(5-(3-cyano-6-ethoxypyrazolo[1,5-a]pyridin-4-yl)pyridin-2-yl)-5-methyloctahydrocyclopenta[c]pyrrol-5-yl)-5-fluoropicolinamide]	50 to 100
≤ 10		≤ 10	Cn1cc(-c2cc(-c3ccc(N4C[C@@H]5C[C@@](C)(NC(=O)c6ncccc6F)C[C@@H]5C4)nc3)c3c(C#N)cnn3c2)cn1 [Example 91, N-((3aR,5s,6aS)-2-(5-(3-cyano-6-(1-methyl-1H-pyrazol-4-yl)pyrazolo[1,5-a]pyridin-4-yl)pyridin-2-yl)-5-methyloctahydrocyclopenta[c]pyrrol-5-yl)-3-fluoropicolinamide]	≤ 10
≤ 10		> 100	CCOc1cc(-c2ccc(N3C[C@@H]4C[C@@](C)(NC(=O)c5nc(C)ccc5Cl)C[C@@H]4C3)nc2)c2c(C#N)cnn2c1 [Example 67, 3-chloro-N-((3aR,5s,6aS)-2-(5-(3-cyano-6-ethoxypyrazolo[1,5-a]pyridin-4-yl)pyridin-2-yl)-5-methyloctahydrocyclopenta[c]pyrrol-5-yl)-6-methylpicolinaniide]	50 to 100
